Reference: ChEMBL document CHEMBL4842310, “Cannabichromene and Δ9-Tetrahydrocannabinolic Acid Identified as Lactate Dehydrogenase-A Inhibitors by in Silico and in Vitro Screening” (J Nat Prod, 2021)

Assays:
[1] = biological target: L-lactate dehydrogenase B chain (Homo sapiens) (UniProt P07195); test: Inhibition of human LDHB assessed as reduction in lactate production using pyruvate as substrate at 10 uM in presence of NADH by spectrophotometric analysis relative to control
[2] = biological target: T1, L-lactate dehydrogenase A chain (Homo sapiens, UniProt P00338); test: Non-competitive inhibition of human LDHA assessed as reduction in lactate production using pyruvate as substrate in presence of NADH by Lineweaver-Burk plot analysis
[3] = biological target: T1, L-lactate dehydrogenase A chain; test: Inhibition of human LDHA assessed as reduction in lactate production using pyruvate as substrate at 10 uM in presence of NADH by spectrophotometric analysis relative to control

Chain of L-lactate dehydrogenase B chain (Homo sapiens) (P07195 2-334 limits assumed): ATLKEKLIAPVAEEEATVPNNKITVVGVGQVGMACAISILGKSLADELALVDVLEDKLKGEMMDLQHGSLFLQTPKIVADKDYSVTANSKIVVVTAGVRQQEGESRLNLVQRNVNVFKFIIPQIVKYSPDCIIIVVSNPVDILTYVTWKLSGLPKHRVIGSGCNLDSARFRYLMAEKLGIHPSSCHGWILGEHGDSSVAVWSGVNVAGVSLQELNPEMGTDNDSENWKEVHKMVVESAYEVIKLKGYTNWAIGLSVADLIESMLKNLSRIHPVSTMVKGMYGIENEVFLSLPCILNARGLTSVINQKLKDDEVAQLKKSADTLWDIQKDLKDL

Row | Structure (SMILES) | inhibition [1] | Ki [2] | inhibition [3]
1 | CCCc1cc(O)c(C/C=C(\C)CCC=C(C)C)c(O)c1 | < 50% | – | –
2 | C=C(C)[C@@H]1CCC(C)=C[C@H]1c1c(O)cc(CCC)c(C(=O)O)c1O | < 50% | – | –
3 | CCCCCc1cc2c(c(O)c1C(=O)O)C=CC(C)(CCC=C(C)C)O2 (centres undefined) | < 50% | – | –
4 | CCCCCc1cc(O)c2c(c1)OC(C)(C)c1ccc(C)cc1-2 | < 50% | – | –
5 | CCCc1cc2c(c(O)c1C(=O)O)[C@@H]1C=C(C)CC[C@H]1C(C)(C)O2 | < 50% | – | –
6 | CCCCCc1cc(O)c(C/C=C(\C)CCC=C(C)C)c(O)c1 | < 50% | – | –
7 | CCCc1cc(O)c(C/C=C(\C)CCC=C(C)C)c(O)c1C(=O)O | < 50% | – | –
8 | CCCc1cc2c(c(O)c1C(=O)O)C=CC(C)(CCC=C(C)C)O2 (centres undefined) | < 50% | – | –
9 | C=C(C)[C@@H]1CCC(C)=C[C@H]1c1c(O)cc(CCCCC)c(C(=O)O)c1O | < 50% | – | –
10 | C=C(C)[C@@H]1CCC(C)=C[C@H]1c1c(O)cc(CCC)cc1O | < 50% | – | –
11 | C=C(C)[C@@H]1CCC(C)=C[C@H]1c1c(O)cc(CCCCC)cc1O [CANNABIDIOL] | < 50% | 24 µM | –
12 | CC(C)=CCC/C(C)=C/Cc1c(O)cc(C)cc1O | < 50% | – | –
13 | CCCCCc1cc(O)c(C/C=C(\C)CCC=C(C)C)c(O)c1C(=O)O | < 50% | – | –
14 | CCCCCc1cc2c(c(O)c1C(=O)O)-c1cc(C)ccc1C(C)(C)O2 | < 50% | – | –
15 | CCCc1cc(O)c2c(c1)OC(C)(C)[C@@H]1CCC(C)=C[C@@H]21 | < 50% | – | –
16 | CCCCCc1cc2c(c(O)c1C(=O)O)[C@@H]1C=C(C)CC[C@H]1C(C)(C)O2 [DELTA9-TETRAHYDROCANNABINOLIC ACID A] | < 50% | 6.5 µM | > 50%
17 | CCCCCc1cc(O)c2c(c1)OC(C)(C)[C@@H]1CCC(C)=C[C@@H]21 [DRONABINOL] | < 50% | 14 µM | –
18 | CCCCCc1cc(O)c2c(c1)OC(C)(CCC=C(C)C)C=C2 (centres undefined) [CANNABICHROMENE] | < 50% | 8.5 µM | > 50%
